The compounds below were run on Plasmodium falciparum (assay: GSK_TCMDC: Inhibition of Plasmodium falciparum 3D7 in whole erythrocytes, using parasite LDH activity as an index of growth.). Conditions: Plasmodium falciparum, 3D7.
Assay type: functional, organism-based

| Structure (SMILES) | XC50 [nM] |
| --- | --- |
| CCCc1ccc(S(=O)(=O)NC2CCN(c3ccnc(Nc4ccc(OC)cc4)n3)C2)cc1 (stereo not drawn) | 1190 |
| O=C(NCc1cccc(F)c1)Nc1cccc(-c2cccc(-c3nc4ccccc4[nH]3)c2)c1 | 389 |
| COc1ccc(Cl)cc1NC(=O)CN(C)C(=O)c1cnn(-c2ccccc2)n1 | 228 |
| Oc1ccc(-c2cncc(NCc3ccc(F)c(F)c3)c2)cc1 | 768 |
| FC(F)(F)c1cc(CNCCCNc2nc3ccncc3[nH]2)ccc1Cl | 1010 |
| CS(=O)(=O)c1ccc(CNCc2ccc(-c3cccc(-c4nc5ccccc5[nH]4)c3)cc2)cc1 | 326 |
| CNCCNCc1ccc(-c2ccc(-c3nc4ccccc4[nH]3)s2)cc1 | 865 |
| CCCCCCN1CCCN(Cc2ccc(C(=O)Nc3ccc(Cl)cc3)cc2)CC1 | 1210 |
| O=C(NCCCCN1CCC(c2ccc3c(c2O)CCCC3)CC1)c1ccc(-c2ccc(Cl)cc2)cc1 | 754 |
| O=C1OC(c2cc3ccccc3n2S(=O)(=O)c2ccccc2)(c2cc3ccccc3n2S(=O)(=O)c2ccccc2)c2ccccc21 | 846 |
| FC(F)(F)c1ccc2[nH]c(-c3ccc(-c4ccc(CNCc5cnn(-c6ccccc6)n5)cc4)s3)nc2c1 | 456 |
| Cc1cccc2nc(-c3cccc(-c4cccc(NC(=O)c5ccc(C(N)=O)cc5)c4)c3)[nH]c12 | 323 |
| O=C(/C=C/c1ccc(O)cc1)NC1CCC(CN2CCC(c3c[nH]c4ccccc34)CC2)CC1 (stereo not drawn) | 744 |
| c1cc(-c2ccc(CNCCc3ccncc3)cc2)cc(-c2nc3ccccc3[nH]2)c1 | 139 |
| CC(C)CNCc1ccc(-c2cccc(CN(C(=O)NCCc3ccccc3)C3CCN(Cc4ccccc4)CC3)c2)cc1 | 579 |
| Cc1ccc(CN2CCCN(Cc3cccc(NC(=O)c4ccc(Cl)c(Cl)c4)c3)CC2)cc1 | 902 |
| COc1cc(F)c2ncc(Cl)c(CCN3CCC(NCc4ccc5c(n4)NC(=O)CS5)CC3)c2c1 | 482 |
| CNC(=O)C1Cc2c([nH]c3ccc(Cl)cc23)C2(CCN(CCc3ccccc3)CC2)N1 (stereo not drawn) | 893 |
| N=C(N)NC(=O)Nc1cc(Br)c(Cl)c(Br)c1 | 765 |
| CCN(CC)CCCNC(=O)/C(=C/C=C/c1cc2cc(Cl)c(Cl)cc2[nH]1)OC | 1160 |
| Oc1c(C(Nc2nc3ccccc3s2)c2ccc(OC(F)F)cc2)ccc2cccnc12 (stereo not drawn) | 571 |
| COc1ccc(Nc2nccc(-c3c(-c4cccc(NC(=O)c5c(F)cccc5F)c4)nn4ccccc34)n2)cc1Cl | 284 |
| CC(C)CN1CCN(c2nc(C#N)c3c(c2C(=S)NC2CCCCC2)CC(C)(C)OC3)CC1 | 296 |
| O=C(/C=C/c1ccc(Cl)cc1)NCCCCCN1CCCN(C(=O)Nc2cccc(Cl)c2)CC1 | 1000 |
| OC1CCCN(Cc2ccc(-c3cccc(-c4nc5cc(F)ccc5[nH]4)c3)cc2)C1 (stereo not drawn) | 868 |

| Structure (SMILES) | XC50 [nM] |
| --- | --- |
| CN1CCCC1CCCOC(=O)c1ccc(N)cc1 (stereo not drawn) | 916 |
| COc1cc(-c2cc(-c3ccc(S(C)(=O)=O)cc3)cnc2N)ccc1O | 101 |
| Cc1cccc2[nH]c(-c3cc(-c4cn[nH]c4)cnc3N)nc12 | 221 |
| FC(F)(F)c1ccc2[nH]c(-c3cccc(-c4ccc(CNCc5ccccc5)cc4)c3)nc2c1 | 163 |
| CCN(CC)CCN(CCN(CC)CC)c1ccc(-c2nc3cc(Cl)c(Cl)cc3[nH]2)cc1 | 785 |
| Cc1ccc(NC(=O)c2ccc(CN3CCCN(Cc4cccc(O)c4)CC3)cc2)cc1F | 591 |
| OCCNc1nc(Nc2ccc(Cl)cc2)nc2ccccc12 | 708 |
| COc1ccc(-c2cccc(NC(=O)c3ccc(Cl)cc3)c2)cc1CN1CCC(O)CC1 | 791 |
| CC(C)c1ccc(NC(=O)NC2CCN(CCCCCNC(=O)/C=C/c3ccc(Cl)c(Cl)c3)CC2)cc1 | 674 |
| CCC(CC)(CCC#N)CN(C[C@@H](O)[C@H](Cc1ccccc1)NC(=O)OC(C)(C)C)S(=O)(=O)c1ccc(OC)cc1 | 1040 |
| CN1CCN(c2ccnc3cc4c(cc23)N(C(=O)Nc2ccc3c(c2)CCCC3=O)CC4)CC1 | 623 |
| Cc1ccc(NC(=O)NC2CCN(c3ccnc4cc(Cl)ccc34)C2)cc1 (stereo not drawn) | 149 |
| COc1ccc(Nc2nccc(-c3cccc(NC(=O)c4cc5cc(F)ccc5[nH]4)c3)n2)cc1 | 1030 |
| Cc1ccc(O)cc1Nc1ccnc2cc(-c3ccccn3)ccc12 [GW440139A] | 761 |
| CC(C)(C)NC(=O)c1ccc(Oc2ccc(OC(F)(F)F)cc2)c(NC(=O)C(C)(C)C)c1 | 977 |
| Fc1ccc2[nH]c(-c3cccc(-c4ccc(CNCCN5CCNCC5)cc4)c3)nc2c1 | 904 |
| O=C(/C=C/c1ccc(Cl)c(Cl)c1)NCCCCCN1CCC(NC(=O)c2ccc([N+](=O)[O-])cc2)CC1 | 672 |
| Cc1cccc2nc(-c3ccc(-c4ccc(CN5CCN(c6ccc(C#N)cn6)CC5)cc4)s3)[nH]c12 | 1130 |
| O=C(Nc1cc(C(F)(F)F)ccc1-n1cncn1)C1(c2ccccc2)CC1 | 60.1 |
| Cc1nc(C)n(CC(=O)Nc2cccc(-c3cccc(-c4nc5cc(C(F)(F)F)ccc5[nH]4)c3)c2)n1 | 761 |
| C=CCN1Cc2c(O)cccc2C(c2ccc(O)c(O)c2)C1 (stereo not drawn) | 670 |
| COc1ccc(NCc2cccc(-c3cccc(CNCCc4ccccc4)c3)c2)cc1 | 1050 |
| O=C(NCc1ccccc1F)c1ccc(N2CCC(NCc3cccc(-n4cccn4)c3)CC2)cc1 | 1730 |
| CCN(CC)C(=O)c1cnc(-c2ccccc2)nc1Oc1cccc(Cl)c1 | 1160 |
| Nc1cccc(-c2ccc3ccnc(N)c3c2)c1 | 796 |

| Structure (SMILES) | XC50 [nM] |
| --- | --- |
| CCCCNC(=O)[C@@H]1CCCN1C(=O)c1ccc(O)c(-c2ccc(Cl)c(Cl)c2)c1 | 751 |
| Cc1cc(N/N=C/c2ccccc2[N+](=O)[O-])c2ccccc2n1 | 776 |
| CCC(=O)OC(CCN(CC)CC)(c1ccccc1)c1ccccc1 | 369 |
| CCOC(=O)C1=C(C)NC2=C(C(=O)CC(C)(C)C2)C1c1ccc(Cl)cc1 (stereo not drawn) | 923 |
| CN(C)CC(=O)Nc1cccc(Nc2nccc(NCC(O)c3ccccc3)n2)c1 (stereo not drawn) | 983 |
| CCn1c(CN2CCC(C)CC2)nc2cc(NC(=O)c3cccs3)ccc21 | 565 |
| COc1cc(OC)cc(C(=O)N2CCOC(CCN3CCC(c4ccccc4)CC3)(c3ccc(Cl)c(Cl)c3)C2)c1 (stereo not drawn) | 442 |
| Cc1ccc(NC(=O)NCCCCCN2CCC(c3c[nH]c4ccccc34)CC2)cc1I | 815 |
| O=C(Nc1cccc(-c2nn3ccccc3c2-c2ccnc(Nc3ccc(Cc4ccncc4)cc3)n2)c1)c1c(F)cccc1F | 296 |
| COc1ccc(C=C2SC(=O)N=C2Nc2ccccc2)c(OC)c1 | 470 |
| COc1cccc2cc(C(=O)N[C@@H](CC(C)C)C(=O)N[C@H](C=NN3CCOC3=O)CC(C)C)oc12 | 741 |
| CCN(CC)C(C)(C)CN(Cc1ccc(-c2ccc(C(F)(F)F)cc2)cc1)C(=O)Cn1c(CCc2cccc(F)c2F)nc(=O)c2ccccc21 | 958 |
| CC(=O)c1cccc(NC(=O)c2ccc(Cl)c(S(=O)(=O)N3CCc4ccccc43)c2)c1 | 1640 |
| O=C(NCCc1ccc(Cl)c(Cl)c1)C1CCCN(C(=O)c2ccc(O)c(-c3ccc(Cl)c(Cl)c3)c2)C1 (stereo not drawn) | 780 |
| CCCCn1c(SC(C)C)nc2c(c1=O)C1(CCCCC1)Cc1ccccc1-2 | 666 |
| CCCCCCN1CCN(Cc2cccc(NC(=O)c3cc4ccccc4s3)c2)CC1 | 912 |
| CC[C@@H]([C@@H](CC(C)C)C(=O)N[C@@H](CCCCNC(=O)OCc1ccccc1)C(=O)Nc1ccccn1)N(O)C=O | 108 |
| O=C(N[C@H]1CCN(Cc2ccc(OCCCN3CCCCC3)cc2)C1)c1ccc2ccccc2c1 | 764 |
| O=C(Nc1ccc([N+](=O)[O-])cc1O)Nc1ccccc1Oc1ccccc1 | 925 |
| CC(C)C1C(O)=C(c2ccc3ccccc3c2)C(=O)N1Cc1cccc(F)c1 (stereo not drawn) | 812 |
| CN(C)CC(=O)NCC(NCCCNc1cc(=O)c2ccccc2[nH]1)c1cc(Br)cc(Br)c1 (stereo not drawn) | 1050 |
| COCCn1c(C)nc2ccccc2c1=O | 1460 |
| O=C(Nc1ccc(-c2cccc(-c3nc4cc(F)ccc4[nH]3)c2)cc1)Nc1ccc(Cl)c(Cl)c1 | 647 |
| CCCCc1cc(NCc2ccncc2)nc(Nc2ccc(C)cc2)n1 | 794 |
| c1ccc2[nH]c(-c3ccc(-c4ccc(CN5CCN(CCN6CCOCC6)CC5)cc4)cc3)nc2c1 | 158 |

| Structure (SMILES) | XC50 [nM] |
| --- | --- |
| CC1(C)C(=O)Nc2ccc3c(c21)CC1SC(=O)NN=C31 (stereo not drawn) | 1490 |
| COc1ccc2c(=O)c(-c3ccc(OC(F)(F)F)cc3)c(C)[nH]c2c1 | 233 |
| CCNc1cc(CCCC(=O)OCC)nc(Nc2ccc(C)cc2)n1 | 771 |
| CN1CCc2cc(I)c(O)cc2C1Cc1ccccc1Cl (stereo not drawn) | 788 |
| O=C(c1cc(-c2ccco2)n[nH]1)N1CCN(S(=O)(=O)c2ccc(Cl)cc2)CC1 | 356 |
| N#Cc1ccc(-c2ccc(C(=O)NCCCCN3CCC(c4nc5ccccc5[nH]4)CC3)cc2)cc1 | 1010 |
| CCOc1ccc2c(=NN=Cc3ccc(F)cc3)cc(C)[nH]c2c1 | 584 |
| C/C=C1\CN2CC[C@H]1C[C@H]2[C@H](O)c1ccnc2ccc(O)cc12 | 601 |
| CC(C)NCC(O)COc1ccc(Cc2ccc(OCC(O)CNC(C)C)cc2)cc1 (stereo not drawn) | 654 |
| O=C(/C=C/c1ccc(Cl)c(Cl)c1)NC1CCC(CN2CCC(c3c[nH]c4cc(O)ccc34)CC2)CC1 (stereo not drawn) | 813 |
| CC1(CCCCN2CCC(c3c[nH]c4cnccc34)CC2)C(=O)Nc2cccc(Cl)c21 (stereo not drawn) | 868 |
| COc1ccc(C=CC(=O)NC(=O)c2ccccc2OC(=O)c2ccccc2)cc1OC | 910 |
| COc1ccc(C(=O)CCC(=O)N(Cc2ccc(-c3ccc(CNCCc4ccccc4)cn3)cc2)C(C)CN(C)C)cc1F (stereo not drawn) | 747 |
| CN(C)c1ccc(CN2CCC(NC(=O)c3ccc(-c4ccccc4F)s3)CC2)cc1 | 1120 |
| CCCN1CCN(Cc2ccc(-c3ccc(-c4nc5ccccc5[nH]4)s3)cc2)CC1 | 611 |
| O=C(NC1CCCCN(Cc2ccccc2O)C1)c1ccc(Cl)c(Cl)c1 (stereo not drawn) | 747 |
| CCN1CCCC1CNC(=O)c1cc2c(-c3ccc(Cl)cc3)nn(C)c2s1 (stereo not drawn) | 788 |
| O=C(c1cc2cccc([N+](=O)[O-])c2[nH]1)N1CCC(CCN2CCC(c3c[nH]c4ccccc34)CC2)CC1 | 943 |
| CCc1nc(N)nc(N)c1-c1ccc(F)c(F)c1 | 417 |
| Cn1cccc1CCNCc1ccc(-c2cccc(-c3nc4cc(F)ccc4[nH]3)c2)cc1 | 1220 |
| Cc1ccccc1C1CCN(C2CCC(NC(=O)c3ccc(-c4cccc(C(F)(F)F)c4)o3)CC2)CC1 (stereo not drawn) | 346 |
| CCn1cnc2c(Nc3cccc([N+](=O)[O-])c3)nc(N3CCC(N4CCCCC4)CC3)nc21 | 954 |
| COC(=O)C(C)NCC(=O)c1ccccc1 (stereo not drawn) | 115 |

Reference: ChEMBL document CHEMBL1157539, “Thousands of chemical starting points for antimalarial lead identification” (Nature, 2010)
